This data set can be described thus: Freeze-thaw stability of concentrates. It is filed as physicochemical. The procedure:
In this example, concentrates according to the present invention were prepared comprising various surfactants and the effect of those surfactants on the freeze-thaw stability of the samples was determined. The concentrates were prepared for an intended dilution ratio of 1 part concentrate to 39 parts water. Each formulation tested comprised 9.2 wt. % formic acid, 9.4 wt. % lactic acid, 23.2 wt. % sodium α-olefin sulfonate (SAOS), and 21 wt. % of the indicated surfactant, with water comprising the balance.
The samples of each formulation were placed in bottles filled to 1.5 inches from the top of the bottles. The bottles containing the samples were placed in a freezer for one day, and removed from the freezer and thawed the subsequent day. The homogeneity of each sample upon thawing was noted. A formulation was considered acceptable if a homogeneous solution was observed upon thawing.

Cocamidopropylbetaine: the “Physical Stability After 1 Freeze-Thaw Cycle” value is listed as “Non-homogeneous”.

For the origin of these results see US10441557B2, “Germicidal compositions comprising carboxylic acid mixture and use as topical disinfectants” (priority 2012, dated 2019).
